Measurements as given in PubChem BioAssay AID200 (DTP/NCI, 2004).
Several values for one entry are separate records, joined by “and”; a condition that tells them apart may be missing. Equal values may be shown once. Toxic doses and inconclusive results are not listed.

Test system: B6C3F1 mice, B16 melanoma ip, median survival T/C
Experiment: NCI In Vivo Anticancer Drug Screen. Data for tumor model B16 Melanoma (intraperitoneal) in B6C3F1 mice
Conditions: endpoint: median survival time, higher = longer survival
Summary of the method: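 Tumor-bearing mice received test compound; a separate group got vehicle only. Survival was then compared, with results reported as treated over control.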

[1] = dose: 3.12 mg/kg/injection, schedule: Q01DX009 (ip), vehicle: saline with Tween-80
[2] = dose: 6.25 mg/kg/injection, schedule: Q01DX009 (ip), vehicle: saline with Tween-80
[3] = dose: 12.5 mg/kg/injection, schedule: Q01DX009 (ip), vehicle: saline with Tween-80
[4] = dose: 25.0 mg/kg/injection, schedule: Q01DX009 (ip), vehicle: saline with Tween-80

O=C1c2c(O)ccc(O)c2C(=O)c2c(NCCNCCO)ccc(NCCNCCO)c21
T/C (dose: 0.12 mg/kg/injection, schedule: Q01DX009 (ip), vehicle: water): 111 % of control | T/C (dose: 0.12 mg/kg/injection, schedule: Q03HX024 (ip), vehicle: acid diluted with saline): 287 % of control | T/C (dose: 0.13 mg/kg/injection, schedule: Q01DX009 (ip), vehicle: water): 184 % of control | T/C (dose: 0.25 mg/kg/injection, schedule: Q01DX005 (ip), vehicle: saline): 183 % of control | T/C (dose: 0.25 mg/kg/injection, schedule: Q01DX005 (iv), vehicle: acid diluted with saline): 102 % of control | T/C (dose: 0.25 mg/kg/injection, schedule: Q01DX005 (iv), vehicle: saline): 88 % of control | T/C (dose: 0.25 mg/kg/injection, schedule: Q01DX009 (ip), vehicle: acid diluted with saline): 172 % of control | T/C (dose: 0.25 mg/kg/injection, schedule: Q01DX009 (ip), vehicle: water): 212 % of control [middle of 4 runs] | T/C (dose: 0.25 mg/kg/injection, schedule: Q01DX009 (sc), vehicle: acid diluted with saline): 101 % of control | T/C (dose: 0.25 mg/kg/injection, schedule: Q03HX008 (ip), vehicle: acid diluted with saline): 206 % of control | T/C (dose: 0.25 mg/kg/injection, schedule: Q03HX024 (ip), vehicle: acid diluted with saline): 292 % of control | T/C (dose: 0.31 mg/kg/injection, schedule: Q01DX009 (ip), vehicle: water): 168 % of control | T/C (dose: 0.5 mg/kg/injection, schedule: Q01DX005 (ip), vehicle: saline): 206 % of control | T/C (dose: 0.5 mg/kg/injection, schedule: Q01DX005 (iv), vehicle: acid diluted with saline): 99 % of control | T/C (dose: 0.5 mg/kg/injection, schedule: Q01DX005 (iv), vehicle: saline): 93 % of control | T/C (dose: 0.5 mg/kg/injection, schedule: Q01DX009 (ip), vehicle: acid diluted with saline): 185 % of control | T/C (dose: 0.5 mg/kg/injection, schedule: Q01DX009 (ip), vehicle: other): 222 % of control | T/C (dose: 0.5 mg/kg/injection, schedule: Q01DX009 (ip), vehicle: water): 216 % of control and 326 % of control and 337 % of control | T/C (dose: 0.5 mg/kg/injection, schedule: Q01DX009 (sc), vehicle: acid diluted with saline): 121 % of control | T/C (dose: 0.5 mg/kg/injection, schedule: Q03HX008 (ip), vehicle: acid diluted with saline): 219 % of control | T/C (dose: 0.62 mg/kg/injection, schedule: Q01DX009 (ip), vehicle: water): 198 % of control and 234 % of control | T/C (dose: 1.0 mg/kg/injection, schedule: Q01DX005 (ip), vehicle: saline): 275 % of control | T/C (dose: 1.0 mg/kg/injection, schedule: Q01DX005 (iv), vehicle: acid diluted with saline): 99 % of control | T/C (dose: 1.0 mg/kg/injection, schedule: Q01DX005 (iv), vehicle: saline): 105 % of control | T/C (dose: 1.0 mg/kg/injection, schedule: Q01DX009 (ip), vehicle: acid diluted with saline): 229 % of control | T/C (dose: 1.0 mg/kg/injection, schedule: Q01DX009 (ip), vehicle: other): 220 % of control | T/C (dose: 1.0 mg/kg/injection, schedule: Q01DX009 (ip), vehicle: water): 326 % of control [middle of 4 runs] | T/C (dose: 1.0 mg/kg/injection, schedule: Q01DX009 (oral), vehicle: acid diluted with saline): 103 % of control | T/C (dose: 1.0 mg/kg/injection, schedule: Q03HX008 (ip), vehicle: acid diluted with saline): 284 % of control | T/C (dose: 1.0 mg/kg/injection, schedule: Q04DX003 (ip), vehicle: acid diluted with saline): 200 % of control | T/C (dose: 1.25 mg/kg/injection, schedule: Q01DX009 (ip), vehicle: water): 238 % of control and 252 % of control | T/C (dose: 2.0 mg/kg/injection, schedule: Q01DX005 (ip), vehicle: saline): 275 % of control | T/C (dose: 2.0 mg/kg/injection, schedule: Q01DX005 (iv), vehicle: acid diluted with saline): 121 % of control | T/C (dose: 2.0 mg/kg/injection, schedule: Q01DX005 (iv), vehicle: saline): 100 % of control | T/C (dose: 2.0 mg/kg/injection, schedule: Q01DX009 (ip), vehicle: acid diluted with saline): 151 % of control | T/C (dose: 2.0 mg/kg/injection, schedule: Q01DX009 (ip), vehicle: other): 105 % of control | T/C (dose: 2.0 mg/kg/injection, schedule: Q01DX009 (ip), vehicle: water): 162 % of control and 187 % of control | T/C (dose: 2.0 mg/kg/injection, schedule: Q01DX009 (oral), vehicle: acid diluted with saline): 102 % of control | T/C (dose: 2.0 mg/kg/injection, schedule: Q03HX008 (ip), vehicle: acid diluted with saline): 292 % of control | T/C (dose: 2.0 mg/kg/injection, schedule: Q04DX003 (ip), vehicle: acid diluted with saline): 224 % of control | T/C (dose: 4.0 mg/kg/injection, schedule: Q01DX001 (ip), vehicle: acid diluted with saline): 200 % of control and 254 % of control | T/C (dose: 4.0 mg/kg/injection, schedule: Q01DX001 (iv), vehicle: acid diluted with saline): 108 % of control | T/C (dose: 4.0 mg/kg/injection, schedule: Q01DX009 (ip), vehicle: water): 262 % of control | T/C (dose: 4.0 mg/kg/injection, schedule: Q01DX009 (oral), vehicle: acid diluted with saline): 96 % of control | T/C (dose: 4.0 mg/kg/injection, schedule: Q04DX003 (ip), vehicle: acid diluted with saline): 278 % of control | T/C (dose: 8.0 mg/kg/injection, schedule: Q01DX001 (ip), vehicle: acid diluted with saline): 219 % of control and 260 % of control | T/C (dose: 8.0 mg/kg/injection, schedule: Q01DX001 (iv), vehicle: acid diluted with saline): 104 % of control | T/C (dose: 8.0 mg/kg/injection, schedule: Q04DX003 (ip), vehicle: acid diluted with saline): 92 % of control | T/C (dose: 9.0 mg/kg/injection, schedule: Q01DX001 (ip), vehicle: acid diluted with saline): 245 % of control and 98 % of control | T/C (dose: 16.0 mg/kg/injection, schedule: Q01DX001 (ip), vehicle: acid diluted with saline): 220 % of control and 292 % of control | T/C (dose: 18.0 mg/kg/injection, schedule: Q01DX001 (ip), vehicle: acid diluted with saline): 196 % of control | T/C (dose: 32.0 mg/kg/injection, schedule: Q01DX001 (ip), vehicle: acid diluted with saline): 234 % of control

O=Cc1ccc([N+](=O)[O-])s1
T/C [1]: 98 % of control | T/C [2]: 105 % of control | T/C [3]: 101 % of control | T/C [4]: 101 % of control | T/C (dose: 50.0 mg/kg/injection, schedule: Q01DX009 (ip), vehicle: saline with Tween-80): 88 % of control

CC(C)C(NC(=O)C(F)(F)F)C(=O)O (stereo not drawn)
T/C (dose: 50.0 mg/kg/injection, schedule: Q01DX009 (ip), vehicle: saline): 96 % of control | T/C (dose: 100.0 mg/kg/injection, schedule: Q01DX009 (ip), vehicle: saline): 89 % of control

[Cl][Hg][CH]1CCC2OC1CC[CH]2[Hg][Cl] (stereo not drawn)
T/C (dose: 1.56 mg/kg/injection, schedule: Q01DX009 (ip), vehicle: saline with Tween-80): 97 % of control | T/C [1]: 97 % of control | T/C [2]: 101 % of control

ClC1=C(Cl)C(Cl)=C(Cl)C1=Cc1ccccc1
T/C [1]: 112 % of control | T/C [2]: 98 % of control | T/C [3]: 106 % of control | T/C [4]: 101 % of control

CNC(=O)OCc1c(COC(=O)NC)c(-c2ccc(Cl)c(Cl)c2)n2c1Cc1ccccc1C2
T/C (dose: 25.0 mg/kg/injection, schedule: Q01DX009 (ip), vehicle: distilled water + Tween-80): 165 % of control | T/C (dose: 50.0 mg/kg/injection, schedule: Q01DX009 (ip), vehicle: distilled water + Tween-80): 194 % of control and 203 % of control | T/C (dose: 100.0 mg/kg/injection, schedule: Q01DX009 (ip), vehicle: distilled water + Tween-80): 92 % of control

O=C1CNC(=O)N1CN1CCOCC1
T/C (dose: 50.0 mg/kg/injection, schedule: Q01DX009 (ip), vehicle: Klucel (hydroxypropylcellulose) (HPC)): 94 % of control | T/C (dose: 100.0 mg/kg/injection, schedule: Q01DX009 (ip), vehicle: Klucel (hydroxypropylcellulose) (HPC)): 94 % of control | T/C (dose: 200.0 mg/kg/injection, schedule: Q01DX009 (ip), vehicle: Klucel (hydroxypropylcellulose) (HPC)): 115 % of control | T/C (dose: 400.0 mg/kg/injection, schedule: Q01DX009 (ip), vehicle: Klucel (hydroxypropylcellulose) (HPC)): 101 % of control
